From BindingDB's records for doi:10.1021/jm701199p (Eli Lilly, 2008)

These molecules were tested against T1, TGF-beta receptor type-1 [4-503,T204D] (Homo sapiens, UniProt P36897, T204D) (assay: Enzyme Assay and Luciferase Reporter Assay). Details: pH 7.5; 30 °C.
T1 construct: 4-503

SMILES	EC50 [nM]
Clc1cc(-c2c(-c3ccccn3)nn3c2CCC3)c2ccccc2n1 [2-chloro-4-[2-(pyridin-2-yl)-4H,5H,6H-pyrrolo[1,2-a]pyrazol-3-yl]quinoline]	> 20000
CCN(C)CCOc1ccc2c(-c3c(-c4ccccn4)nn4c3CCC4)ccnc2c1 [ethyl(methyl)[2-({4-[2-(pyridin-2-yl)-4H,5H,6H-pyrrolo[1,2-a]pyrazol-3-yl]quinolin-7-yl}oxy)ethyl]amine]	61
COC(=O)c1ccc2nccc(-c3c(-c4cccc(C)n4)nn4c3CCC4)c2c1 [methyl 4-[2-(6-methylpyridin-2-yl)-4H,5H,6H-pyrrolo[1,2-a]pyrazol-3-yl]quinoline-6-carboxylate]	403
COc1cc(OC)c2nccc(-c3c(-c4cccc(C)n4)nn4c3CCC4)c2c1 [6,8-dimethoxy-4-[2-(6-methylpyridin-2-yl)-4H,5H,6H-pyrrolo[1,2-a]pyrazol-3-yl]quinoline]	7200
O=C(O)c1ccc(Oc2ccc3c(-c4c(-c5ccccn5)nn5c4CCC5)ccnc3c2)cc1 [4-({4-[2-(pyridin-2-yl)-4H,5H,6H-pyrrolo[1,2-a]pyrazol-3-yl]quinolin-7-yl}oxy)benzoic acid]	> 20000
c1ccc(-c2nn3c(c2-c2cc(N4CCCC4)nc4ccccc24)CCC3)nc1 [4-[2-(pyridin-2-yl)-4H,5H,6H-pyrrolo[1,2-a]pyrazol-3-yl]-2-(pyrrolidin-1-yl)quinoline]	> 20000
CN1CCN(CCOc2ccc3c(-c4c(-c5ccccn5)nn5c4CCC5)ccnc3c2)CC1 [7-[2-(4-methylpiperazin-1-yl)ethoxy]-4-[2-(pyridin-2-yl)-4H,5H,6H-pyrrolo[1,2-a]pyrazol-3-yl]quinoline]	38
c1ccc(-c2nn3c(c2-c2ccnc4cc(OCC5CCCO5)ccc24)CCC3)nc1 (stereo not given) [7-(oxolan-2-ylmethoxy)-4-[2-(pyridin-2-yl)-4H,5H,6H-pyrrolo[1,2-a]pyrazol-3-yl]quinoline]	80
Cc1cccc(-c2nn3c(c2-c2ccnc4ccc(Br)cc24)CCC3)n1 [6-bromo-4-[2-(6-methylpyridin-2-yl)-4H,5H,6H-pyrrolo[1,2-a]pyrazol-3-yl]quinoline]	55
Oc1ccc2c(-c3c(-c4ccccn4)nn4c3CCC4)ccnc2c1 [4-[2-(pyridin-2-yl)-4H,5H,6H-pyrrolo[1,2-a]pyrazol-3-yl]quinolin-7-ol]	200
ClCCOc1ccc2c(-c3c(-c4ccccn4)nn4c3CCC4)ccnc2c1 [7-(2-chloroethoxy)-4-[2-(pyridin-2-yl)-4H,5H,6H-pyrrolo[1,2-a]pyrazol-3-yl]quinoline]	66
CCSc1cc(-c2c(-c3ccccn3)nn3c2CCC3)c2ccccc2n1 [2-(ethylsulfanyl)-4-[2-(pyridin-2-yl)-4H,5H,6H-pyrrolo[1,2-a]pyrazol-3-yl]quinoline]	> 20000
Cc1cccc(-c2nn3c(c2-c2ccnc4ccc(OC(F)(F)F)cc24)CCC3)n1 [4-[2-(6-methylpyridin-2-yl)-4H,5H,6H-pyrrolo[1,2-a]pyrazol-3-yl]-6-(trifluoromethoxy)quinoline]	201
CN(C)CCCCCOc1ccc2c(-c3c(-c4ccccn4)nn4c3CCC4)ccnc2c1 [dimethyl[5-({4-[2-(pyridin-2-yl)-4H,5H,6H-pyrrolo[1,2-a]pyrazol-3-yl]quinolin-7-yl}oxy)pentyl]amine]	24
CN1CCCC1CCCOc1ccc2c(-c3c(-c4ccccn4)nn4c3CCC4)ccnc2c1 (stereo not given) [7-[3-(1-methylpyrrolidin-2-yl)propoxy]-4-[2-(pyridin-2-yl)-4H,5H,6H-pyrrolo[1,2-a]pyrazol-3-yl]quinoline]	17
Cc1cccc(-c2nn3c(c2-c2ccnc4ccc(C(=O)NCCN(C)C)cc24)CCC3)n1 [N-[2-(dimethylamino)ethyl]-4-[2-(6-methylpyridin-2-yl)-4H,5H,6H-pyrrolo[1,2-a]pyrazol-3-yl]quinoline-6-carboxamide]	468
CN(C)C(=O)c1ccc(Oc2ccc3c(-c4c(-c5ccccn5)nn5c4CCC5)ccnc3c2)cc1 [N,N-dimethyl-4-({4-[2-(pyridin-2-yl)-4H,5H,6H-pyrrolo[1,2-a]pyrazol-3-yl]quinolin-7-yl}oxy)benzamide]	15000
CN1CCN(CCCOc2ccc3c(-c4c(-c5ccccn5)nn5c4CCC5)ccnc3c2)CC1 [7-[3-(4-methylpiperazin-1-yl)propoxy]-4-[2-(pyridin-2-yl)-4H,5H,6H-pyrrolo[1,2-a]pyrazol-3-yl]quinoline]	44
Cc1cccc(-c2nn3c(c2-c2ccnc4c(F)cccc24)CCC3)n1 [8-fluoro-4-[2-(6-methylpyridin-2-yl)-4H,5H,6H-pyrrolo[1,2-a]pyrazol-3-yl]quinoline]	951
CN1CCN(C(=O)COc2ccc3c(-c4c(-c5ccccn5)nn5c4CCC5)ccnc3c2)CC1 [1-(4-methylpiperazin-1-yl)-2-({4-[2-(pyridin-2-yl)-4H,5H,6H-pyrrolo[1,2-a]pyrazol-3-yl]quinolin-7-yl}oxy)ethan-1-one]	260
